Here are results for four molecules from PMC4860631, “Pharmacokinetics and tolerability of NSC23925b, a novel P-glycoprotein inhibitor: preclinical study in mice and rats” (Scientific Reports, 2016).

One data set addresses T1, CYP2B6 (Homo sapiens, UniProt P20813).
T1 construct: from tissue; host or cells: human liver microsomes
T1 sequence (P20813 1-491): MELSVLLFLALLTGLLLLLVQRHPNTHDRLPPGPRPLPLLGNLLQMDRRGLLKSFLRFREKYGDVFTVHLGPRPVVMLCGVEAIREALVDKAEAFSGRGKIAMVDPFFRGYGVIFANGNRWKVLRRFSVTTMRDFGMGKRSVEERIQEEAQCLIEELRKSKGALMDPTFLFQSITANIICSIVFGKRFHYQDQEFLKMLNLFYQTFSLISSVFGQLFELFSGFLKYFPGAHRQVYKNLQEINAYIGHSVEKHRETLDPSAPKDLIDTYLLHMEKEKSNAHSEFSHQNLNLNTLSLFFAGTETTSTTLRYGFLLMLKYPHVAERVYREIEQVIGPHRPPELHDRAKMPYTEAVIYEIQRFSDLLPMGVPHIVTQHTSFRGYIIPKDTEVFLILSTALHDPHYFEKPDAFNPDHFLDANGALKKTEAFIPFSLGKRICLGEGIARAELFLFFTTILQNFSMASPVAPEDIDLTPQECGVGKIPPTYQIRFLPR
Briefly: HLM-LC-MS CYP450 inhibition assay, CYP2B6. Particulars: substrate bupropion 70 μM, hydroxylation, read-out: Compound IC50. It counts as in vitro ADME. As for the experimental part: (§1) Compounds were tested in triplicate.

Data set [1] can be described thus: Plasma pharmacokinetics after single I.P./I.V. dose in male BALB/c mice (LC-MS/MS). Particulars: for AUC(0-inf): AUC0-inf; for AUC(0-t): AUC0-t; for Vd: VdSS; for clearance: CL; for k el: Kel. On the procedure: After dosing, blood samples were collected at different time points for each group. […] Three animals were used for each time point. Approximately 800 μL of blood was collected via orbital vein (a source of collecting sufficient volume of venous blood) from each anesthetized mouse by isoflurane, and 200 μL of blood was collected from the cannula implanted in the jugular vein. The catheter was implanted when the blood sample was collected at the first time point. Next, the blood was transferred to a prepared tube containing sodium heparin anticoagulant and mixed briefly by gentle inversion three to four times. The target and actual time of blood sampling were recorded relative to the time of dosing. Samples were placed on wet ice immediately after collection. Within 1 hour after collection, plasma was separated by centrifugation at 4,000 rpm for 10 minutes at 4 °C. The plasma was protected from light and stored at −80 °C until analyzed by liquid chromatography-mass spectrometry/mass spectrometry (LC-MS/MS) for quantification.
Using the data from the standards, calibration curves were generated for each analytical batch. Aliquots of 10.0 μL of samples, calibraton curve samples, and QC samples were supplemented with 100 μL of precipitant (a mixture of acetone and acetonitrile (30:70)). After vortexing for 3 min and centrifuging at 12,000 rpm for 3 min, 75.00 μL of the supernatant was transferred into a 96-well microplate with an equal volume of water. The 10 μL mixture solution was injected for LC-MS/MS analysis.
Data collection was performed using Analyst version 1.4 from Applied Biosystems. […] The data were also analyzed using Prism 5.0 software. Statistical significance was determined using independent two-tailed Student t-tests and one-way ANOVA for independent data. Differences of P < 0.05 were regarded as significant for all statistical analyses.

For data set [2] the following is noted: male, Sprague-Dawley, rat, in vivo, iv.
The nature of another data set: in vivo. The note with it: male, Sprague-Dawley, rat, iv; for AUC(0-inf): AUC0-inf; for AUC(0-t): AUC0-t.
The nature of data set [3]: Plasma pharmacokinetics after single I.P./I.V. dose in male Sprague-Dawley rats (LC-MS/MS). Particulars: for MRTIV / clearance / k el: SD rats; for clearance / k el / half-life: male, Sprague-Dawley, rat, plasma, iv, 1 mg/kg; for clearance: CL; for k el: Kel; for half-life: t1/2, SD rats.
The next data set has as its target T2, CYP2C19 (Homo sapiens, UniProt P33261).
T2 construct: from tissue; host or cells: human liver microsomes
Nature of the data set: HLM-LC-MS CYP450 inhibition assay, CYP2C19. In kind it is in vitro ADME. Particulars: substrate S-mephenytoin 35 μM, 4-hydroxylation, read-out: Compound IC50. On the procedure:
as §1

Setting [4] is: male, BALB/c, mouse, in vivo, iv, 2 mg/kg.
The mark [5] stands for this setting: male, BALB/c, mouse, plasma, iv, 2 mg/kg, BALB/c mice, doxorubicin I.V. 2.00 mg/kg alone.
Where [6] appears, read: male, BALB/c, mouse, plasma, iv, 2 mg/kg, BALB/c mice, doxorubicin I.V. 2.00 mg/kg combined with NSC23925b 2.50 mg/kg.
Setting [7] is: doxorubicin I.V. 1.00 mg/kg alone.
Setting [8] is: doxorubicin I.V. 1.00 mg/kg combined with NSC23925b 2.50 mg/kg.
[9] abbreviates: male, BALB/c, mouse, in vivo, iv, 5 mg/kg.

SMILES strings stand for the structures. Read-outs that look alike come from different tables or passages of the source.

T2 sequence (P33261 whole entry): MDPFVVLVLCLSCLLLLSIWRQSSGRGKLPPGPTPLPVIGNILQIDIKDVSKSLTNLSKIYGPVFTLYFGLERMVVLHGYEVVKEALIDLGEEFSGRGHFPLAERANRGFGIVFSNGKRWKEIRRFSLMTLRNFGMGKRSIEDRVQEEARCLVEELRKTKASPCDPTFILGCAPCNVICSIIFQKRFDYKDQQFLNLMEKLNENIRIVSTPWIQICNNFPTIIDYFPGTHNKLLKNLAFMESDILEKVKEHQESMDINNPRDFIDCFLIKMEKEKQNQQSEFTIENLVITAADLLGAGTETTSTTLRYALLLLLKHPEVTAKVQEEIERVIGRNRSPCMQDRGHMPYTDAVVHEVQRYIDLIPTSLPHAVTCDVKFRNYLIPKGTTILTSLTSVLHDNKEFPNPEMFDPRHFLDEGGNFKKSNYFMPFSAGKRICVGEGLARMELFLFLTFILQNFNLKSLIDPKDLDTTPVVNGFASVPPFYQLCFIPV

As usually defined, the IC50 is the concentration that inhibits the measured activity by half. As for `COC(=O)[C@H](c1ccccc1Cl)N1CCc2sccc2C1` [Clopidogrel, reference compound], the IC50 on CYP2B6 was 914 nM.

Usually AUC(0-inf) stands for total exposure, with the tail of the curve extrapolated. Usually AUC(0-t) stands for the area under the concentration-time curve up to a stated or last time point. High values mean high exposure, low ones low exposure. Usually Vd stands for the apparent volume that relates the amount in the body to the concentration in plasma or blood. A low value points to little distribution into tissue. A word on the half-life: it is how long it takes for the measured level to halve. In the case of `COc1cccc2c1C(=O)c1c(O)c3c(c(O)c1C2=O)C[C@@](O)(C(=O)CO)C[C@@H]3O[C@H]1C[C@H](N)[C@H](O)[C@H](C)O1` [Doxorubicin, reference compound], the MRTIV in data set [1] (BALB/c mice, doxorubicin I.V. 2.00 mg/kg alone) stood at 14.6 ± 5.71 h; in data set [1] (BALB/c mice, doxorubicin I.V. 2.00 mg/kg combined with NSC23925b 2.50 mg/kg), 17.3 ± 4.17 h; in data set [3] (setting [7]), 11.1 ± 2.41 h; in data set [3] (setting [8]), 16.1 ± 0.771 h. In data set [1] (setting [4]), this molecule showed an AUMC0-inf of 4157 ± 2493 h·h·ng·mL^−1. Also, the AUMC0-t stood at 1470 ± 309 h·h·ng·mL^−1 in data set [1] (setting [4]) and 446 ± 282 h·h·ng·mL^−1 in data set [2] (1 mg/kg). Besides, the total exposure AUC(0-inf) came out at 272 ± 53.7 ng·h/mL in data set [1] (setting [4]) and 117 ± 32.5 ng·h/mL in “in vivo” (1 mg/kg). Further, the AUC(0-t) was 207 ± 9.76 ng·h/mL in data set [1] (setting [4]) and 89.7 ± 35.6 ng·h/mL in “in vivo” (1 mg/kg). The distribution volume (Vd) in data set [1] (setting [4]) worked out at 105 ± 19.8 L/kg; in “in vivo” (1 mg/kg, VdSS), 97.1 ± 19.5 L/kg. The clearance in data set [1] (setting [5]) worked out at 126 ± 22.4 mL/min/kg; in data set [1] (setting [6]) it was 155 ± 19.2 mL/min/kg; in data set [3] (setting [7]) it was 151 ± 43.1 mL/min/kg; in data set [3] (setting [8]), 120 ± 7.57 mL/min/kg. Moreover, the k el was 1.89e-05 s⁻¹ in data set [1] (setting [5]), 1.52e-05 s⁻¹ in data set [1] (setting [6]), 1.93e-05 s⁻¹ in data set [3] (setting [7]) and 1.35e-05 s⁻¹ in data set [3] (setting [8]). For the same molecule, the half-life in data set [1] (male, BALB/c, mouse, plasma, iv, 2 mg/kg, t1/2, BALB/c mice, doxorubicin I.V. 2.00 mg/kg alone) is 10.7 ± 3.29 h; in data set [1] (male, BALB/c, mouse, plasma, iv, 2 mg/kg, t1/2, BALB/c mice, doxorubicin I.V. 2.00 mg/kg combined with NSC23925b 2.50 mg/kg) it was 12.8 ± 1.91 h; in data set [3] (setting [7]) it was 10.5 ± 2.76 h; in data set [3] (setting [8]) it was 14.3 ± 0.87 h.

On to `COc1ccc2[nH]c([S+]([O-])Cc3ncc(C)c(OC)c3C)nc2c1` (centres unmarked) [Omeprazole, reference compound], for which the half-inhibitory concentration (IC50) on CYP2C19 is 4080 nM.

In the case of `CC(=O)O[C@H]1C(=O)[C@@]2(C)[C@H]([C@H](OC(=O)c3ccccc3)[C@]3(O)C[C@H](OC(=O)[C@H](O)[C@@H](NC(=O)c4ccccc4)c4ccccc4)C(C)=C1C3(C)C)[C@]1(OC(C)=O)CO[C@@H]1C[C@@H]2O` [Paclitaxel, reference compound], in data set [1] (setting [9]), the AUMC0-inf turned out to be 2911 ± 400 h·h·ng·mL^−1, the AUMC0-t stood at 2728 ± 356 h·h·ng·mL^−1, the MRTIV is given as 1.16 ± 0.147 h and the AUC(0-inf) amounted to 2520 ± 244 ng·h/mL. In data set [1] (setting [9]), this molecule gave an AUC(0-t) of 2500 ± 238 ng·h/mL, a clearance of 33.2 ± 3.12 mL/min/kg, a k el of 0.000149 s⁻¹ and a volume of distribution (Vd) of 2.31 ± 0.428 L/kg. In addition, the half-life in data set [1] (male, BALB/c, mouse, in vivo, iv, 5 mg/kg, t1/2) is 1.33 ± 0.28 h. Further, in data set [2] (5 mg/kg), the AUMC0-inf stood at 29892 ± 4245 h·h·ng·mL^−1, the AUMC0-t was determined as 13231 ± 1265 h·h·ng·mL^−1, the Kel is 0.0602 ± 0.0042 h⁻¹ and the MRTIV was determined as 6.50 ± 0.853 h. In data set [2] (5 mg/kg), this molecule gave a VdSS of 7.13 ± 1.34 L/kg. In the data set “in vivo” (5 mg/kg), this molecule returned a total exposure AUC(0-inf) of 4610 ± 517 ng·h/mL and an exposure AUC(0-t) of 4200 ± 492 ng·h/mL. This molecule also came in with a clearance in “in vivo” (5 mg/kg, CL) of 18.2 ± 1.93 mL/min/kg.
